From patent US20230314454A1, “BLOOD COAGULATION TEST REAGENT, AND BLOOD COAGULATION TEST METHOD” (Thrombo Translational Research Lab Inc., priority 2020, published 2023) come the findings set out here.

The subject of experiment [1] is thrombin generation in patient plasma. The experiment is described as follows: Thrombin generation test (TF/FXIa initiation reagent), apixaban spiked into patient plasma. Type of experiment: biochemical, human. The protocol: (§1) In test, plasma specimens were prepared by centrifugation of blood that was collected using an anticoagulant citric acid. The plasma specimens were frozen at −80° C. until the test starts, and thawed at 37° C. immediately before the test, and used.
(§2) The thrombin generation initiation reagent was prepared by mixing the following reagents. The thrombin formation initiation reagent was appropriately diluted with 50 mM tris buffer solution containing 0.5% bovine serum albumin (purchased from FUJIFILM Wako Pure Chemical Corporation) and 0.15 M sodium chloride (purchased from FUJIFILM Wako Pure Chemical Corporation) (BSA/TBS, pH 7.4). • Human TF (Dade Innovin, purchased from SYSMEX CORPORATION) solution • Human FXIa (purchased from Funakoshi Co., Ltd.) solution • Synthetic phospholipids (purchased from Haematex) solution • Calcium chloride (purchased from FUJIFILM Wako Pure Chemical Corporation) solution […]
(§3) To quantify the generated thrombin, the thrombin detection reagent containing EDTA, which was a reaction stopping reagent, was then added to the plasma, followed by incubation at 37° C. for 1 minute. Since thrombin hydrolyzed the thrombin fluorogenic substrate to emit fluorescence during the incubation, the fluorescence intensity was measured using a fluorescence plate reader (excitation wavelength: 355 nm, fluorescence wavelength: 460 nm). The measured fluorescence intensity was converted into the thrombin concentration based on a standard curve constructed using a thrombin standard substance (Technothrombin TGA calibrator, purchased from Cosmo Bio Co., Ltd.). The thrombin generation in the plasma was expressed as a relative ratio (%) with respect to the thrombin generation in control plasma (Siemens control plasma N for blood coagulation test, purchased from SYSMEX CORPORATION).
To test inhibitory effect of the DOACs on thrombin generation, Test specimens were prepared by spiking rivaroxaban, apixaban, or edoxaban into plasma, and the thrombin generation in the plasma was assessed. […]

Experiment [2] deals with thrombin generation in plasma. In words: Thrombin generation in plasma over time after taking apixaban. Type of experiment: in vivo, human. Conditions: patients #004 and #005, 10 mg apixaban taken. The protocol: as §1
The thrombin generation initiation reagent was prepared by mixing the following reagents. […]
as §3, with “CORPORATION). […]” for “CORPORATION).”

For experiment [3], the system named is blood coagulant activity (clotting time). In words: Blood coagulation tests APTT and PT-INR in plasma after taking apixaban. As to conditions: patients #004 and #005, after taking 10 mg apixaban. Type of experiment: in vivo, human.
Method: The coagulant activity of each of the test plasma specimen was tested using APTT and PT-INR test methods as blood coagulation tests. In both methods, the coagulant activity was determined by measuring clotting time after adding the coagulation initiation reagent into plasma specimens.
For experiment [4], the system named is thrombin generation in control plasma. The experiment is described as follows: Thrombin generation test (TF/FXIa initiation reagent), DOACs spiked into control plasma. Type of experiment: biochemical, human. Conditions: DOAC added to control plasma at 18.5 ng/mL to 500 ng/mL; FIG. 2. On the procedure: as §2
as §3, with “The thrombin generation in the plasma was expressed as a relative ratio (%) with respect to the thrombin generation in control plasma (Siemens control plasma N for blood coagulation test, purchased from SYSMEX CORPORATION).” left out

Where only a bound is given, the exact number is not on record here.

For the compound `COc1ccc(-n2nc(C(N)=O)c3c2C(=O)N(c2ccc(N4CCCCC4=O)cc2)CC3)cc1` [apixaban], in experiment [1] (apixaban 125, 250 or 500 ng/mL, plasma of patients #001, #002, #003, 150 fM TF, 12.5 pM FXIa), the “effect of apixaban addition on thrombin generation in patient plasma” value is “suppressed thrombin generation in the plasma from the patient in a dose-dependent fashion”. For the same compound, the “thrombin generation relative to control plasma” value in experiment [1] (plasma of patient #003 after adding apixaban (125-500 ng/mL)) is given as 25%; in experiment [1] (plasma of patients #001 and #002 after adding apixaban (125-500 ng/mL)), no more than 5%. Further, the “change in thrombin generation after taking apixaban” value in experiment [2] is given as “decreased with increase in apixaban concentrations”. Further, the “change in blood coagulant activities measured by APTT and PT-INR” value in experiment [3] is reported as “no significant alteration”.

Take `O=C(NC[C@H]1CN(c2ccc(N3CCOCC3=O)cc2)C(=O)O1)c1ccc(Cl)s1` [rivaroxaban]: the “inhibitory effect on thrombin generation compared among the three DOACs” value in experiment [4] was “strongest inhibitory effect”.
